Values after ≈ are worked out from the molar mass of the structure shown. Values joined by “and” are separate entries in the source; they are usually repeats but may differ in a detail not shown here. Equal values may be shown once. Read-outs that look alike come from different tables or passages of the source.
Columns and labels:
[1] = target: cytoplasmic domain of VraS (VraS-C) (Staphylococcus aureus, UniProt Q99SZ7); assay: biochemical; format: binding
VraR = VraR (Staphylococcus aureus, UniProt Q7A4R9); assay: biochemical; format: binding; settings: for Kd / RUmax VraR: His-tagged VraR; for Kd: NB = No Binding
[2] = target: PurC (unrelated protein, control) (Bacillus anthracis, UniProt Q81ZH5); format: binding; settings: read-out: KD PurC (control)
[3] = test system: hetero VISA isolate, hVISA 2275; settings: cited from earlier work; for MIC compound (Clo, Pyr, Gos): compound alone; for potentiation of vancomycin: hVISA
[4] = test system: vancomycin intermediate resistant Staphylococcus aureus strain, VISA 2283; settings: cited from earlier work; for potentiation of vancomycin: VISA; for MIC Van: vancomycin alone
[5] = test system: vanA containing VRSA strain VRS2; settings: cited from earlier work; for MIC compound (Clo, Pyr, Gos): compound alone
[6] = test system: vanA containing VRSA strain VRS1; settings: cited from earlier work; for MIC compound (Clo, Pyr, Gos): compound alone
[7] = test system: test strain 923 pPvra-lux (USA300 MRSA); assay: Primary screen, relative growth in presence of oxacillin; settings: compound 10 μM with oxacillin 2 μg/mL, absorbance 24 h, <0.50 = dead cells = hit
[8] = test system: vraSR promoter (Pvra-lux reporter in strain 923); assay: Primary screen, relative luminescence (vraSR expression)
[9] = test system: test strain 923 pPvra-lux; assay: Secondary screen / synergy confirmation of Top 40, relative growth with oxacillin; format: cell-based, Staphylococcus aureus; settings: Top 40 library, compound at maximum non-GI conc
Description: In the secondary screen each microtiter plate contained either cells in TSB alone (16 replicates), cells with oxacillin (2 μg/mL, 31 replicates), or cells with test compound and oxacillin (2 μg/mL, 49 wells). Each compound was assayed in four separate biological replicates.
Synergy Confirmation of “Top 40”. […]

[10] = test system: vraSR promoter (Pvra-lux reporter in strain 923); format: cell-based, Staphylococcus aureus
Description: In the secondary screen each microtiter plate contained either cells in TSB alone (16 replicates), cells with oxacillin (2 μg/mL, 31 replicates), or cells with test compound and oxacillin (2 μg/mL, 49 wells). Each compound was assayed in four separate biological replicates. […]

[11] = test system: test strain (923 pPvra-lux); assay: Growth inhibition by compound alone (maximum non-growth-inhibitory concentration); format: cell-based, Staphylococcus aureus; settings: compound alone; maximum concentration where it did NOT inhibit growth
multiple strains of MRSA = assay: MICs (minimal inhibitory concentrations) vs multiple strains of MRSA; format: cell-based, Staphylococcus aureus; settings: compound at 0.25 mg/L
[12] = new run with His-tagged VraS, NB = No Binding, read-out: KD VraS

cytoplasmic domain of VraS (VraS-C), sequence (Q99SZ7 70-347): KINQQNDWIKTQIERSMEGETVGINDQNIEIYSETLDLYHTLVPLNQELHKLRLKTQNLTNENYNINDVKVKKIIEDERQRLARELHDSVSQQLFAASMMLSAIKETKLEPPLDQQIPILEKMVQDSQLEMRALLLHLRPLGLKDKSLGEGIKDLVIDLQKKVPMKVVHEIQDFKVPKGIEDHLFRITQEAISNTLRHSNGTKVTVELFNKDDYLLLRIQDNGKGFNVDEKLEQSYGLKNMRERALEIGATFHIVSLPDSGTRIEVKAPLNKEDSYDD
PurC (unrelated protein, control), sequence (Q81ZH5 whole entry, looked up): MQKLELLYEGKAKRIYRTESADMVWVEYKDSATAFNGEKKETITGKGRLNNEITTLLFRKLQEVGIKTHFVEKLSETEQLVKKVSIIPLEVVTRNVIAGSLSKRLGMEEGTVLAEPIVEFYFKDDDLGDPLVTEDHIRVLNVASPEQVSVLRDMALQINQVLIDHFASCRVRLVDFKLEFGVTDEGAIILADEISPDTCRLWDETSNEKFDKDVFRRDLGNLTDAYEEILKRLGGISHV
VraR, sequence (Q7A4R9 whole entry): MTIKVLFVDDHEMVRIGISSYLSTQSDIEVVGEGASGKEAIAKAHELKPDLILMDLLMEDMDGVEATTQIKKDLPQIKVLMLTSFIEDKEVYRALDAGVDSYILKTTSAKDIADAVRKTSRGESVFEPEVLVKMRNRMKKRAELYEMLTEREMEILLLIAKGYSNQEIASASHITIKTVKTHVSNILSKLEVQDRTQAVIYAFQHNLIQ

Cc1cc(/C=C/c2ccc3cc(N(C)C)ccc3[n+]2C)c(C)n1-c1ccccc1 [Pyr, Pyrvinium]
binding to VraS-C ([1]; SPR): binds | RUmax VraS ([1]; new run with His-tagged VraS): 46.5 ± 2.9 | Kd [1, 12]: 21.3 ± 3.6 µM | Kd (VraR): > 100 µM | Kd [2]: > 100 µM | MIC (in combination) Clo+, Pyr+, Gos+ ([3]; MIC of the compound in combination with the indicated Van concentration, hVISA 2275): 0.56 µg/mL | MIC compound (Clo, Pyr, Gos) ([3]; hVISA 2275): 16 µg/mL | FICi V + compound ([3]; hVISA 2275): 0.54 | Synergy category ([3]; hVISA 2275): partial (partially potentiated vancomycin (FIC i>0.5 and <1.0)) | fold decrease Van MIC ([3]; hVISA 2275): 2 fold | potentiation of vancomycin [3]: partially potentiated | Van FIC ([3]; in combination with compound, hVISA 2275): 0.50 | Clo FIC, Pyr FIC, Gos FIC ([3]; in combination with vancomycin, hVISA 2275): 0.04 | MIC (in combination) Van+ ([3]; vancomycin MIC when used in combination with compound, hVISA 2275): 2 µg/mL | Synergy category ([4]; VISA 2283): non syn | potentiation of vancomycin [4]: not | Synergy category [5]: synergistic (An FICi of ≦0.5 defines a synergistic interaction) | potentiation of vancomycin [5]: fully potentiated | MIC compound (Clo, Pyr, Gos) [5]: 1.12 µg/mL | fold decrease Van MIC [6]: 64 fold | potentiation of vancomycin [6]: fully potentiated | MIC compound (Clo, Pyr, Gos) [6]: 2.24 µg/mL

O=C(Nc1nnc(-c2ccccc2Cl)o1)c1cccc(C(F)(F)F)c1 [F1374-0037]
binding to VraS-C ([1]; SPR): bound | RUmax VraS ([1]; new run with His-tagged VraS): 45.1 ± 3.2 | Kd [1, 12]: 25.8 ± 4.8 µM | Kd (VraR): > 100 µM | Kd [2]: > 100 µM | RG avg (relative growth) [7]: 0.02 | RL avg (relative luminescence) [8]: 0.35

COc1cccc(-c2nnc(NC(=O)c3ccc(Cl)s3)o2)c1 [F1374-0351]
Kd [1, 12]: > 100 µM | Kd (VraR): > 100 µM | Kd [2]: > 100 µM

O=C(Nc1nnc(-c2cc(Cl)ccc2Cl)o1)c1ccc(Cl)s1 [F2518-0042]
Kd [1, 12]: > 100 µM | Kd (VraR): > 100 µM | Kd [2]: > 100 µM

O=C(Nc1nnc(-c2ccc(Br)cc2)o1)c1ccc(Cl)s1 [F2518-0474]
binding to VraS-C ([1]; SPR): bound | RUmax VraS ([1]; new run with His-tagged VraS): 52.9 ± 12.8 | Kd [1, 12]: 79.5 ± 34.6 µM | RUmax VraR (VraR): 27.5 ± 2.4 | Kd (VraR): 22.2 ± 5.4 µM | Kd [2]: > 100 µM | RG avg (relative growth) [7]: 0.01 | RL avg (relative luminescence) [8]: −0.01

CCN(CC)CCOc1ccc(C(=C(Cl)c2ccccc2)c2ccccc2)cc1 [Clo, Clomiphene]
MIC compound (Clo, Pyr, Gos) ([3]; hVISA 2275): 12 µg/mL (≈ 29.6 µM) | Synergy category ([3]; hVISA 2275): partial (partially potentiated vancomycin (FIC i>0.5 and <1.0)) | potentiation of vancomycin [3]: partially potentiated | MIC (in combination) Clo+, Pyr+, Gos+ ([4]; MIC of the compound in combination with the indicated Van concentration, VISA 2283): 3 µg/mL | FICi V + compound ([4]; VISA 2283): 0.75 | Synergy category ([4]; VISA 2283): partial (partially potentiated vancomycin (FIC i>0.5 and <1.0)) | potentiation of vancomycin [4]: partially potentiated | MIC compound (Clo, Pyr, Gos) ([4]; compound alone, VISA 2283): 12 µg/mL (≈ 29.6 µM) | Van FIC ([4]; in combination with compound, VISA 2283): 0.5 | Clo FIC, Pyr FIC, Gos FIC ([4]; in combination with vancomycin, VISA 2283): 0.25 | MIC (in combination) Van+ ([4]; vancomycin MIC when used in combination with compound, VISA 2283): 4 µg/mL | potentiation of vancomycin [5]: fully potentiated | MIC compound (Clo, Pyr, Gos) [5]: 12 µg/mL (≈ 29.6 µM) | FICi V + compound [6]: 0.75 | Synergy category [6]: partial (partially potentiated vancomycin (FIC i>0.5 and <1.0)) | potentiation of vancomycin [6]: partially potentiated | MIC compound (Clo, Pyr, Gos) [6]: 12 µg/mL (≈ 29.6 µM)

O=C(Nc1nnc(-c2ccc3c(c2)CCCC3)o1)c1nc2ccccc2s1 [F0608-0570]
Kd [1, 12]: > 100 µM | Kd (VraR): > 100 µM | Kd [2]: > 100 µM

CN[C@H](CC(C)C)C(=O)N[C@H]1C(=O)N[C@@H](CC(N)=O)C(=O)N[C@H]2C(=O)N[C@H]3C(=O)N[C@H](C(=O)N[C@H](C(=O)O)c4cc(O)cc(O)c4-c4cc3ccc4O)[C@H](O)c3ccc(c(Cl)c3)Oc3cc2cc(c3O[C@@H]2O[C@H](CO)[C@@H](O)[C@H](O)[C@H]2O[C@H]2C[C@](C)(N)[C@H](O)[C@H](C)O2)Oc2ccc(cc2Cl)[C@H]1O [Van, Vancomycin]
MIC Van ([3]; vancomycin alone, hVISA 2275): 4 µg/mL (≈ 2.76 µM) | MIC Van ([4]; VISA 2283): 8 µg/mL (≈ 5.52 µM) | MIC Van ([4]; VISA 2283, listed as vancomycin): 16 µg/mL and 8 µg/mL | MIC Van ([5]; vancomycin alone): 16 µg/mL (≈ 11 µM) | MIC Van ([6]; vancomycin alone): 1024 µg/mL (≈ 707 µM)

Cc1ccc(C)c(-c2nnc(NC(=O)c3nc4ccccc4s3)o2)c1 [F2518-0327]
Kd [1, 12]: > 100 µM | RUmax VraR (VraR): 46.5 ± 2.9 | Kd (VraR): 15.4 ± 6.4 µM | binding to VraR (VraR; SPR): bound | Kd [2]: > 100 µM

COc1cccc(-c2nnc(NC(=O)c3cccc(F)c3)o2)c1 [F1374-0327]
Kd [1, 12]: > 100 µM | Kd (VraR): > 100 µM | Kd [2]: > 100 µM

O=C(Nc1nnc(-c2ccc(F)cc2)o1)c1cccc(Br)c1 [F1374-0119]
Kd [1, 12]: > 100 µM | Kd (VraR): > 100 µM | Kd [2]: > 100 µM

CSc1cccc(-c2nnc(NC(=O)c3nc4ccccc4s3)o2)c1 [F2645-0188]
RG Ox avg [9]: 0.03 | RL Ox avg ([10]; Top 40 library, with oxacillin, compound at maximum non-GI conc): 0.05 | vraSR repressing synergist ([10]; overall class from syn and rep): 1. confirmed | maximum non-GI conc [11]: 40 µg/mL | Ox MIC in presence of compound (multiple strains of MRSA; isolate 923, SCCmec IV, ST 8): 2 µg/mL | Ox MIC in presence of compound (multiple strains of MRSA; isolate 1176, SCCmec II, ST 231): <0.5 µg/mL | Ox MIC in presence of compound (multiple strains of MRSA; isolate 2169, SCCmec IV, ST 72): 0.5 µg/mL | Ox MIC in presence of compound (multiple strains of MRSA; isolate 8004-01, SCCmec III, ST 239): 64 µg/mL | Ox MIC in presence of compound (multiple strains of MRSA; isolate 8010-01, SCCmec IV, ST 8): 0.5 µg/mL | Ox MIC in presence of compound (multiple strains of MRSA; isolate 8227-01, SCCmec IV, ST 87): 0.5 µg/mL | Ox MIC in presence of compound (multiple strains of MRSA; isolate 11095, SCCmec II, ST 105): 32 µg/mL | Ox MIC in presence of compound (multiple strains of MRSA; isolate 13113, SCCmec II, ST 5): <0.13 µg/mL | Ox MIC in presence of compound (multiple strains of MRSA; isolate 13354, SCCmec IV, ST 5): <0.13 µg/mL | Ox MIC in presence of compound (multiple strains of MRSA; isolate 14315, SCCmec IV, ST 1): <0.5 µg/mL | Ox MIC in presence of compound (multiple strains of MRSA; isolate Q2461, SCCmec VT, ST 59): 0.25 µg/mL | Kd ([1]; His-tagged VraS-C, SPR, read-out: KD): 56.1 ± 16.3 µM | binding to VraS-C ([1]; SPR): Binds | RUmax VraS ([1]; new run with His-tagged VraS): (74.1 ± 10.7) | RUmax VraS ([1]; previous run with untagged VraS): 325 ± 33 | Kd ([1]; untagged VraS-C protein, SPR, read-out: KD): 13.2 ± 3.2 µM | Kd (VraR): > 100 µM | Kd [2]: > 100 µM | RG avg (relative growth) [7]: 0.03 | RL avg (relative luminescence) ([8]; primary screen, compound 10 μM with oxacillin 2 μg/mL, <0.50 = vraSR repressed = hit): 0.37

O=C(Nc1nnc(-c2ccc3c(c2)CCCC3)o1)c1cccc(C(F)(F)F)c1 [F0608-0575]
Kd [1, 12]: > 100 µM | Kd (VraR): > 100 µM | Kd [2]: > 100 µM

CS(=O)(=O)c1ccc(-c2nnc(NC(=O)c3ccc(Cl)s3)o2)cc1 [F2645-0790]
Kd [1, 12]: > 100 µM | Kd (VraR): > 100 µM | Kd [2]: > 100 µM

O=C(Nc1nnc(-c2ccccc2Cl)o1)c1cccc(Oc2ccccc2)c1 [F1374-0081]
Kd [1, 12]: > 100 µM | Kd (VraR): > 100 µM | Kd [2]: > 100 µM

O=C(Nc1nnc(-c2ccc(Br)cc2)o1)c1cccc(C(F)(F)F)c1 [F2518-0477]
Kd [1, 12]: > 100 µM | Kd (VraR): > 100 µM | Kd [2]: > 100 µM

Cc1ccc(-c2nnc(NC(=O)c3nc4ccccc4s3)o2)c(C)c1 [F2518-0183]
Kd [1, 12]: > 100 µM | Kd (VraR): > 100 µM | Kd [2]: > 100 µM

Source: patent US9675592B2, “Methods and compositions for bacteria infections” (priority 2013, dated 2017)
